From patent publication US8394969B2, “Cyclic benzimidazole derivatives useful as anti-diabetic agents” (Merck Sharp & Dohme Corp., priority 2008, dated 2013)
Counter-ions that a name gives are not always drawn.

These compounds were tested against recombinant human AMPK complex 1 (containing α1β1γ1) (Homo sapiens, UniProt Q13131+Q9Y478) (assay: […] (in vitro AMPK activation assay)). Details: read-out: % Maximum AMP Activation of human AMPK Complex 1, recombinant human AMPK complex 1 (α1β1γ1); basal activity subtracted.
recombinant human AMPK complex 1 (containing α1β1γ1), sequence (Q13131 whole entry): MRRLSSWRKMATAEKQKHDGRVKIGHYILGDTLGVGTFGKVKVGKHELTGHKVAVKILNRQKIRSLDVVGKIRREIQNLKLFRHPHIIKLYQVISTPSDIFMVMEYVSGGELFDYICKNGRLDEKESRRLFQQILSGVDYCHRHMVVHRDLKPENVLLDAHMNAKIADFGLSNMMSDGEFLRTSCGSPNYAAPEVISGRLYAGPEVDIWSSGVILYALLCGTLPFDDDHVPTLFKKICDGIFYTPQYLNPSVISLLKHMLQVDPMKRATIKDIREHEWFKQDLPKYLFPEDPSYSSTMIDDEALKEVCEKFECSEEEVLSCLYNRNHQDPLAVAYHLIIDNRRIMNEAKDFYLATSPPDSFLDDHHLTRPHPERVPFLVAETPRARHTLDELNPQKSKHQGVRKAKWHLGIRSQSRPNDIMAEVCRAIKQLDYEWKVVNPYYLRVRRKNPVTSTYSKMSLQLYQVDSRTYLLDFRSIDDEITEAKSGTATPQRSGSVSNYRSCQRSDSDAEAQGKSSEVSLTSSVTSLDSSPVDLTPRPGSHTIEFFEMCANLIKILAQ
recombinant human AMPK complex 1 (containing α1β1γ1), sequence (Q9Y478 whole entry): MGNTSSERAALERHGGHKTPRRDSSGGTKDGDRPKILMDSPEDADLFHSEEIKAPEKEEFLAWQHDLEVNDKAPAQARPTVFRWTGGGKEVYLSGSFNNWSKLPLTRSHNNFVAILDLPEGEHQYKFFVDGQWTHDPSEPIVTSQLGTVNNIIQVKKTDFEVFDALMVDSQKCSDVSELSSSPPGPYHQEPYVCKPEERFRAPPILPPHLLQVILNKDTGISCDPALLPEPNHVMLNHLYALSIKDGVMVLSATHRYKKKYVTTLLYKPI
recombinant human AMPK complex 1 (containing α1β1γ1), sequence (P54619 whole entry partner): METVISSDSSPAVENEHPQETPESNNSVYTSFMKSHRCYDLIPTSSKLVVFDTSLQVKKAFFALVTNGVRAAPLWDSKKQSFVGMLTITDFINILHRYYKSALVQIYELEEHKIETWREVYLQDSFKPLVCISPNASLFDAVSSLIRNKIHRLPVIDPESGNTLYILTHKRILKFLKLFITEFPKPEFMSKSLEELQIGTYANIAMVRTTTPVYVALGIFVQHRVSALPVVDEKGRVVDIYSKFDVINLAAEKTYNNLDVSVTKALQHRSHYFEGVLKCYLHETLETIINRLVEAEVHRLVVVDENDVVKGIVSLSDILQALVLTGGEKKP
Format: biochemical

Row | Compound | Emax [%]
1 | Cc1ccc(Oc2nc3cc(-c4cccc(C(C)C)c4)c(Cl)cc3[nH]2)cc1C(=O)O [Example 339, Ammonium 5-{[6-chloro-5-(3-isopropylphenyl)-1H-benzimidazol-2-yl]oxy}-2-methylbenzoate] | > 80
2 | Cc1cc(-c2cc3nc(Oc4ccc(C)c(C(=O)O)c4)[nH]c3cc2Cl)ccc1F [Example 328, Ammonium 5-{[6-chloro-5-(4-fluoro-3-methylphenyl-1H-benzimidazol-2-yl]oxy}-2-methylbenzoate] | > 80

Same assay, conditions: recombinant human AMPK complex 1 (α1β1γ1); basal activity subtracted; read-out: % Maximum AMP Activation of human AMPK Complex 1

Row | Compound | Emax [%]
3 | Cc1ccc(Oc2nc3cc(C#Cc4ccc(F)cc4F)c(Cl)cc3[nH]2)cc1C(=O)O [Example 76, 5-[6-Chloro-5-(2,4-difluoro-phenylethynyl)-1H-benzoimidazol-2-yloxy]-2-methyl-benzoic acid] | > 80
4 | COc1ccc2cc(-c3cc4nc(Oc5ccc(Cl)c(C(=O)O)c5)[nH]c4cc3Cl)ccc2c1 [Example 309, 2-Chloro-5-[6-chloro-5-(6-methoxy-naphthalen-2-yl)-1H-benzoimidazol-2-yloxy]-benzoic acid] | > 80
5 | Cc1cc2cc(-c3cc4nc(Oc5ccc(C)c(C(=O)O)c5)[nH]c4cc3Cl)ccc2[nH]1 [Example 261, 5-{[6-chloro-5-(2-methyl-1H-indol-5-yl)-1H-benzimidazol-2-yl]oxy}-2-methylbenzoic acid] | > 80
6 | COC(=O)c1cc(Oc2nc3cc(-c4ccc(-c5ccccc5C)cc4)c(Cl)cc3[nH]2)ccc1C [Example 198, Methyl 5-{[6-chloro-5-(2′-methylbiphenyl-4-yl)-1H-benzimidazol-2-yl]oxy}-2-methylbenzoate] | > 80
7 | Cc1ccc(Oc2nc3cc(-c4ccc(N(C)C)c(F)c4)c(Cl)cc3[nH]2)cc1C(=O)O [Example 296, 2-(3-carboxy-4-methylphenoxy)-6-chloro-5-[4-(dimethylamino)-3-fluorophenyl]-1H-3,1-benzimidazol-3-ium chloride] | > 80
8 | COC(=O)c1cc(Oc2nc3cc(C#Cc4cccc(O)c4)c(Cl)cc3[nH]2)ccc1C [Example 125, 5-[6-Chloro-5-(3-hydroxy-phenylethynyl)-1H-benzoimidazol-2-yloxy]-2-methyl-benzoic acid methyl ester] | > 80
9 | Cc1ccc(Oc2nc3cc(-c4ccc(-c5ccccc5)cc4)c(Cl)cc3[nH]2)cc1C(=O)NS(C)(=O)=O [Example 221, N-[5-(5-Biphenyl-4-yl-6-chloro-1H-benzoimidazol-2-yloxy)-2-methyl-benzoyl]-methanesulfonamide] | > 80
10 | Cc1ccc(Oc2nc3cc(-c4ccc5c(c4)CNC5=O)c(Cl)cc3[nH]2)cc1C(=O)O [Example 305, 5-[6-Chloro-5-(1-oxo-2,3-dihydro-1H-isoindol-5-yl)-1H-benzoimidazol-2-yloxy]-2-methyl-benzoic acid] | > 80
11 | COC(=O)c1cc(Oc2nc3cc(-c4ccc(-c5ccccc5Cl)cc4)c(Cl)cc3[nH]2)ccc1C [Example 196, Methyl 5-{[6-chloro-5-(2′-chlorobiphenyl-4-yl)-1H-benzimidazol-2-yl]oxy}-2-methylbenzoate] | > 80
12 | Cc1ccc(Oc2nc3cc(C#Cc4ccc(-c5cnco5)cc4)c(Cl)cc3[nH]2)cc1C(=O)O [Example 120, 5-[6-Chloro-5-(4-oxazol-5-yl-phenylethynyl)-1H-benzoimidazol-2-yloxy]-2-methyl-benzoic acid] | > 80
13 | Cc1ccc(Oc2nc3cc(-c4cnc5c(ccn5C)c4)c(Cl)cc3[nH]2)cc1C(=O)O [Example 144, 2-(3-carboxy-4-methylphenoxy)-6-chloro-5-(1-methyl-1H-pyrrolo[2,3-b]pyridin-5-yl)-1H-3,1-benzimidazol-3-ium chloride] | > 80
14 | Cc1ccc(Oc2nc3cc(-c4ccc(C5CCCCC5)cc4)c(Cl)cc3[nH]2)cc1C(=O)O [Example 357, 5-[6-Chloro-5-(4-cyclohexyl-phenyl)-1H-benzoimidazol-2-yloxy]-2-methyl-benzoic acid] | > 80
15 | O=C(O)c1cc(COc2nc3cc(-c4ccc(-c5ccccc5)cc4)c(Cl)cc3[nH]2)cc(C(=O)O)c1 [Example 227, 5-(5-Biphenyl-4-yl-6-chloro-1H-benzoimidazol-2-yloxymethyl)-isophthalic acid] | > 80
16 | COC(=O)c1ccc(C#Cc2cc3nc(Oc4ccc(C)c(C(=O)O)c4)[nH]c3cc2Cl)cc1 [Example 91, 5-[6-Chloro-5-(4-methoxycarbonyl-phenylethynyl)-1H-benzoimidazol-2-yloxy]-2-methyl-benzoic acid] | > 80
17 | Cc1ccc(Oc2nc3cc(C#Cc4ccc(-n5cccn5)cc4)c(Cl)cc3[nH]2)cc1C(=O)O [Example 71, 5-[6-Chloro-5-(4-pyrazol-1-yl-phenylethynyl)-1H-benzoimidazol-2-yloxy]-2-methyl-benzoic acid] | > 80
18 | Cc1ccc(Oc2nc3cc(C#CC4(O)CCCC4)c(Cl)cc3[nH]2)cc1C(=O)O [Example 135, 5[6-Chloro-5-(1-hydroxy-cyclopentylethynyl)-1H-benzoimidazol-2-yloxy]-2-methyl-benzoic acid] | > 80

Row | Compound | Emax [%]
19 | COc1ccc(-c2cc3nc(Oc4ccc(C)c(C(=O)O)c4)[nH]c3cc2Cl)cc1OC [Example 260, 2-(3-carboxy-4-methylphenoxy)-6-chloro-5-(3,4-dimethoxyphenyl)-1H-3,1-benzimidazol-3-ium trifluoroacetate] | > 80
20 | NC(C(=O)O)c1ccc(Oc2nc3cc(-c4ccc(-c5ccccc5)cc4)c(Cl)cc3[nH]2)cc1 (stereo not drawn) [Example 18, Amino-[4-(5-biphenyl-4-yl-6-chloro-1H-benzoimidazol-2-yloxy)-phenyl]-acetic acid] | > 80
21 | Cc1ccc(Oc2nc3cc(C#Cc4ccc(-c5ccccn5)cc4)c(Cl)cc3[nH]2)cc1C(=O)O [Example 90, 5-[6-Chloro-5-(4-pyridin-2-yl-phenylethynyl)-1H-benzoimidazol-2-yloxy]-2-methyl-benzoic acid] | > 80
22 | Cc1ccc(Oc2nc3cc(C#Cc4ccc(-c5nc6ccccc6o5)cc4)c(Cl)cc3[nH]2)cc1C(=O)O [Example 81, 5-[5-(4-Benzooxazol-2-yl-phenylethynyl)-6-chloro-1H-benzoimidazol-2-yloxy]-2-methyl-benzoic acid] | > 80
23 | COC(=O)c1cc(Oc2nc3cc(C#CC4(O)CCCC4)c(Cl)cc3[nH]2)ccc1C [Example 137, 5-[6-Chloro-5-(1-hydroxy-cyclopentylethynyl)-1H-benzoimidazol-2-yloxy]-2-methyl-benzoic acid methyl ester] | > 80
24 | COc1ccc(C(=O)O)cc1Oc1nc2cc(-c3ccc(-c4ccccc4)cc3)c(Cl)cc2[nH]1 [Example 211, 3-(5-Biphenyl-4-yl-6-chloro-1H-benzoimidazol-2-yloxy)-4-methoxy-benzoic acid] | > 80
25 | Cc1ccc(Oc2nc3cc(-c4ccc5c(c4)CCN5C)c(Cl)cc3[nH]2)cc1C(=O)O [Example 282, 5-[6-Chloro-5-(1-methyl-2,3-dihydro-1H-indol-5-yl)-1H-benzoimidazol-2-yloxy]-2-methyl-benzoic acid] | > 80
26 | COC(=O)c1cc(Oc2nc3cc(-c4ccc(-c5ccc(OC)nc5)cc4)c(Cl)cc3[nH]2)cc(C)c1C [Example 314, 5-{6-Chloro-5-[4-(6-methoxy-pyridin-3-yl)-phenyl]-1H-benzoimidazol-2-yloxy}-2,3-dimethyl-benzoic acid methyl ester] | > 80
27 | Cc1ccc(Oc2nc3cc(-c4ccc(-c5nnn[nH]5)cc4)c(Cl)cc3[nH]2)cc1C(=O)O [Example 176, 5-{6-Chloro-5-[4-(1H-tetrazol-5-yl)-phenyl]-1H-benzoimidazol-2-yloxy}-2-methyl-benzoic acid] | > 80
28 | Cc1ccc(Oc2nc3cc(-c4ccc(C(=O)N(C)C)cc4)c(Cl)cc3[nH]2)cc1C(=O)O [Example 241, 5-[6-Chloro-5-(4-dimethylcarbamoyl-phenyl)-1H-benzoimidazol-2-yloxy]-2-methyl-benzoic acid] | > 80
29 | Cc1ccc(C#Cc2cc3nc(Oc4ccc(C)c(C(=O)O)c4)[nH]c3cc2Cl)cn1 [Example 132, 5-[6-Chloro-5-(6-methyl-pyridin-3-ylethynyl)-1H-benzoimidazol-2-yloxy]-2-methyl-benzoic acid] | > 80
30 | Cc1ccc(Oc2nc3cc(-c4ccc5c(c4)cc(C)n5C)c(Cl)cc3[nH]2)cc1C(=O)O [Example 289, 5-[6-Chloro-5-(1,2-dimethyl-1H-indol-5-yl)-1H-benzoimidazol-2-yloxy]-2-methyl-benzoic acid] | > 80
31 | Cc1ccnc(-c2cc3nc(Oc4ccc(C)c(C(=O)O)c4)[nH]c3cc2Cl)c1 [Example 335, 2-(3-carboxy-4-methylphenoxy)-6-chloro-5-(4-methylpyridin-2-yl)-1H-3,1-benzimidazol-3-ium formate] | > 80
32 | COC(=O)Cn1nnc(-c2cccc(Oc3nc4cc(-c5ccc(-c6ccccc6)cc5)c(Cl)cc4[nH]3)c2)n1 [Example 41, {5-[3-(5-Biphenyl-4-yl-6-chloro-1H-benzoimidazol-2-yloxy)-phenyl]-tetrazol-2-yl}-acetic acid methyl ester] | > 80
33 | Cc1ccc(Oc2nc3cc(-c4ccc(C(C)C)c5[nH]ccc45)c(Cl)cc3[nH]2)cc1C(=O)O [Example 273, 5-[6-Chloro-5-(7-isopropyl-1H-indol-4-yl)-1H-benzoimidazol-2-yloxy]-2-methyl-benzoic acid] | > 80

Same assay, conditions: recombinant human AMPK complex 1 (α1β1γ1); read-out: EC50

Row | Compound | EC50 [nM]
34 | Cc1ccc(Oc2nc3cc(-c4ccc(-c5ccc(C(=O)O)cc5)cc4)c(F)cc3[nH]2)cc1C(=O)O [Example 184, 4′-[2-3-carboxy-4-methylphenoxy-6-fluoro-1H-benzimidazol-5-yl]biphenyl-4-carboxylic acid] | 8
35 | Cc1ccc(Oc2nc3cc(-c4cc5ccn(CCO)c5cc4F)c(Cl)cc3[nH]2)cc1C(=O)O [Example 325, 5-({6-chloro-5-[6-fluoro-1-(2-hydroxyethyl)-1H-indol-5-yl]-1H-benzimidazol-2-yl}oxy)-2-methylbenzoic acid] | 5
36 | Cc1ccc(Oc2nc3cc(C#Cc4ccccc4F)c(Cl)cc3[nH]2)cc1C(=O)O [Example 67, 5({6-chloro-5-[(2-fluorophenyl)ethynyl]-1H-benzimidazol-2-yl}oxy)-2-methylbenzoic acid] | 3
